# Laboratory results as given in article PMC7144325, “Discovery of novel ATAD2 bromodomain inhibitors that trigger apoptosis and autophagy in breast cells by structure-based virtual screening” (Journal of Enzyme Inhibition and Medicinal Chemistry, 2020).
# “Also recorded” adds a separate entry of the source. Where two headings read alike, the source gives them in different places.
# Key:
# ATAD2 bromodomain [1] = molecular target: T1, ATAD2 bromodomain (Homo sapiens, UniProt Q6PL18); experiment: TR-FRET assay, ATAD2 bromodomain; format: binding
# T1 sequence (Q6PL18 980-1092 limits assumed): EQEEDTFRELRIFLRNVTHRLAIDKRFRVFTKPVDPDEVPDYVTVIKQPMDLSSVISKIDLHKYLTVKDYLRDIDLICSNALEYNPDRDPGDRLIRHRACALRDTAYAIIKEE
# Protocol: (§1) The assay was performed by TR-FRET technology using recombinant bromodomain and BET Ligand[27]. The compounds were diluted in 100% DMSO. They were diluted 20 fold in 5% DMSO in Reaction Buffer and 2 µl of the dilution was added to a 20 µl reaction. The reaction mixture incubated for 180 min prior to reading the TR-FRET signal. TR-FRET was recorded as the ratio of the fluorescence of the acceptor and the donor dyes (acceptor/donor). Binding experiments were performed in duplicate at each concentration. The TR-FRET data were analysed using the computer software, Graphpad Prism.
# MDA-MB-231 cells [2] = experiment: Cell viability assay (MTT), MDA-MB-231; format: cell-based; details: for antiproliferatory inhibition rate in cell viability assay: at 20 µM, MDA-MB-231 cells; for IC50: Homo sapiens, MDA-MB-231, MTT, read-out: IC50 antiproliferative, MDA-MB-231
# Protocol: MDA-MB-231cells were purchased from American Type Culture Collection (ATCC, Manassas, VA, USA). Cells were cultured in DMEM with 10% foetal bovine serum and incubated with 5% CO2. Antibodies used in this study were as follow: ATAD2 (ab176319, abcam), c-Myc (ab32072, abcam), cMyc^Ser62 (ab51156, abcam), Bax(5023, CST), Bcl-2(15071, CST), caspase8(9746, CST), caspase-3 (9665, CST), AKT (4691, CST), mTOR (2983, CST), p-mTOR^Ser2448 (5536,CST), ULK1 (6439, CST), p-ULK1^Ser555 (5869, CST), p62 (5114, CST), Beclin1 (4122, CST), LC3B (3868, CST), β-actin (3700, CST).
# (§2) Cells were dispensed in 96-well plates at a density of 5 × 10^4 cells/ml. After 24 h incubation, cells were treated with different concentrations of compounds for the indicated periods. Cell viability was measured by the MTT assay.
# BRD2(2) = molecular target: T2, BRD2(2) (Homo sapiens, UniProt P25440); experiment: TR-FRET assay, BRD2(2); format: binding
# T2 construct: against the first and second bromodomains of BRD2, BRD3 and BRD4
# T2 sequence (P25440 344-453 limits assumed): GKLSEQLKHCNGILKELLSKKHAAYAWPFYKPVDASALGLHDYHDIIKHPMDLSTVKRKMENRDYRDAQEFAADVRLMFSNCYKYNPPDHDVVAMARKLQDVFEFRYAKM
# Protocol: as §1
# BRD4(1) = molecular target: T3, BRD4(1) (Homo sapiens, UniProt O60885); experiment: TR-FRET assay, BRD4(1); format: binding
# T3 construct: against the first and second bromodomains of BRD2, BRD3 and BRD4
# Protocol: as §1
# [3] = tested on: MDA-MB-231, MDA-MB-436, MDA-MB-468, BT474 and MCF-7 cells; experiment: Anti-proliferation activity on breast cancer cell panel (MTT); format: cell-based; details: MDA-MB-231, MDA-MB-436, MDA-MB-468, BT474 and MCF-7 cells (Figure S1)
# Protocol: as §2
# [4] = tested on: ATAD2, c-Myc, p-cMyc in MDA-MB-231 cells; experiment: Western blot of ATAD2, c-Myc and p-cMyc; format: cell-based; details: MDA-MB-231, 1.25, 2.5 and 5.0 µM, 24 h
# Protocol: (§3) Adherent and floating cells were collected after treatment with AM879 for indicated times. Cells were lysed in a lysis buffer consisting of Hepes 50 mM pH 7.4, Triton-X-100 1%, sodium orthovanada 2 mM, sodium fluoride 100 mM, edetic acid 1 mM, PMSF 1 mM, aprotinin (Sigma, MO, USA) 10 mg/L and leupeptin (Sigma) 10 mg/L at 4 °C for 1 h. After 12,000 rpm centrifugation for 15 min, the protein content of supernatant was determined by the Bio-Rad DC protein assay (Bio-Rad Laboratories, Hercules, CA, USA). Equal amounts of the total protein were separated by 10–15% SDS-PAGE and transferred to PVDF membranes, and the membranes were soaked in blocking buffer (5% skimmed milk or BSA). Proteins were detected using primary antibodies, followed by HRP-conjugated secondary antibody and visualised by using ECL as the HRP substrate. Quantity One 4.4 was used to quantify.
# BRD2-4 = experiment: TR-FRET selectivity, statement for BRD2, BRD3 and BRD4 together; format: binding; details: first and second bromodomains
# Protocol: as §1
# BRD2(1) = molecular target: T4, BRD2(1) (Homo sapiens, UniProt P25440); experiment: TR-FRET assay, BRD2(1); format: binding
# T4 construct: against the first and second bromodomains of BRD2, BRD3 and BRD4
# T4 sequence (P25440 74-180 limits assumed): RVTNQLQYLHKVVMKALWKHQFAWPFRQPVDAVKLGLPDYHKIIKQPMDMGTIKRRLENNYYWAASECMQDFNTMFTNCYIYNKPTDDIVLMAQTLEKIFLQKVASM
# Protocol: as §1
# [5] = tested on: PI3K-AKT-mTOR signalling in MDA-MB-231 cells; experiment: Western blot of PI3K-AKT-mTOR signalling; format: cell-based; details: MDA-MB-231, 1.25, 2.5, 5 µM, 24 h
# Protocol: as §3
# BRD3(1) = molecular target: T5, BRD3(1) (Homo sapiens, UniProt Q15059); experiment: TR-FRET assay, BRD3(1); format: binding
# T5 construct: against the first and second bromodomains of BRD2, BRD3 and BRD4
# T5 sequence (Q15059 34-140 limits assumed): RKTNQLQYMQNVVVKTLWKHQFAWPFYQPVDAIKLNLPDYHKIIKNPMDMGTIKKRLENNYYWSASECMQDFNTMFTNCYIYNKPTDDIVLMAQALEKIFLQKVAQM
# Protocol: as §1
# [6] = tested on: Bax, Bcl-2, Caspase8, Caspase3 in MDA-MB-231 cells; experiment: Western blot of Bax, Bcl-2, Caspase8 and Caspase3; format: cell-based; details: MDA-MB-231, 1.25, 2.5 and 5 μM, 24 h
# Protocol: as §3
# BRD3(2) = molecular target: T6, BRD3(2) (Homo sapiens, UniProt Q15059); experiment: TR-FRET assay, BRD3(2); format: binding
# T6 construct: against the first and second bromodomains of BRD2, BRD3 and BRD4
# T6 sequence (Q15059 306-415 limits assumed): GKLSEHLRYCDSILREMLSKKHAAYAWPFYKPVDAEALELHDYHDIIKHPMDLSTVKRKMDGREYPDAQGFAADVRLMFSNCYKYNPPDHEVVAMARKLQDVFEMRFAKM
# Protocol: as §1
# [7] = tested on: ULK1, p-ULK1, Beclin 1, p62, LC3 in MDA-MB-231 cells; experiment: Western blot of ULK1, p-ULK1, Beclin 1, SQSTM1/p62 and LC3; format: cell-based; details: MDA-MB-231, 1.25, 2.5, 5 µM, 24 h
# Protocol: as §3
# BRD4(2) = molecular target: T7, BRD4(2) (Homo sapiens, UniProt O60885); experiment: TR-FRET assay, BRD4(2); format: binding
# T7 construct: against the first and second bromodomains of BRD2, BRD3 and BRD4
# Protocol: as §1
# MDA-MB-231 cells [8] = experiment: Apoptosis assay, flow cytometry of Annexin-V/PI double staining; format: cell-based; details: MDA-MB-231, 1.25, 2.5 and 5 μM, 24 h
# MDA-MB-231 cells [9] = experiment: TUNEL apoptosis assay; format: cell-based; details: MDA-MB-231, 2.5 μM, 24 h
# Protocol: TUNEL staining was also used to detect cell apoptosis. Cells were treated with DMSO or AM879 and then formalin-fixed.
# MDA-MB-231 cells [10] = experiment: Autophagy assay, GFP/mRFP-LC3 puncta; format: cell-based; details: MDA-MB-231, GFP-mRFP-LC3, 24 h
# [11] = design: method as in PMID 29043777, PMID 30226378, PMID 31398032; details: in vitro or vivo cellular assays; cited from earlier work
# [12] = design: method as in PMID 27530368; details: in vivo as printed; cited from earlier work
# BET = tested on: BET; design: method as in PMID 26230603; details: ATAD2 over BET; cited from earlier work
# ATAD2 bromodomain [13] = molecular target: T1, ATAD2 bromodomain; details: cited from earlier work
smiles,measurement,setting,value
CCn1c(SCC(C)=O)nc2c1c(=O)[nH]c(=O)n2C [AG-690],inhibition at 20 µM,"ATAD2 bromodomain [1]; at 20 µM, read-out: ATAD2 enzyme inhibition rate",79%
same,antiproliferatory inhibition rate in cell viability assay,MDA-MB-231 cells [2],less potency than AM879
CC1=C(C#N)c2nc(N)c(C#N)c(C)c2/C1=C\c1ccc(-c2cc(C(=O)O)ccc2Cl)o1 [AM879],IC50,BRD2(2),> 50 µM
same,IC50,"ATAD2 bromodomain [1]; Table 3, read-out: IC50 ATAD2",3560 nM
same,IC50,BRD4(1),> 50 µM
same,anti-proliferation activity on breast cancer cells,[3],potent antiproliferatory activity
same,IC50,MDA-MB-231 cells [2]; 24 h,2430 nM
same,IC50,MDA-MB-231 cells [2]; 48 h,2060 nM
same,IC50,MDA-MB-231 cells [2]; 72 h,1050 nM
same,antiproliferatory inhibition rate in cell viability assay,MDA-MB-231 cells [2],90%
same,"expression of ATAD2, c-Myc and p-cMyc",[4],"suppressed the expression of c-Myc; also recorded: inhibited the expression of ATAD2, c-Myc and the phosphorylation of c-Myc"
same,inhibitory activity against BRD2-4,BRD2-4,no inhibitory activity
same,inhibitory activity against BRD2-4,BRD2-4; listed as AM-879,no activity
same,IC50,BRD2(1),> 50 µM
same,PI3K-AKT-mTOR signalling protein expression,[5],"obviously downregulated expression of PI3K, AKT, mTOR and mTOR^Ser2448"
same,IC50,BRD3(1),> 50 µM
same,"expression of Bax, Bcl-2, Caspase8 and Caspase3",[6],"elevated the expression of Bax, reduced the expression of Bcl-2, accompanied with the cleavage of caspase3 and caspase8"
same,IC50,BRD3(2),> 50 µM
same,"expression of ULK1, p-ULK1, Beclin 1, SQSTM1/p62 and LC3-II",[7],"elevation of ULK1, p-ULK1, Beclin 1 and LC3-II in a dose-dependent manner, as well as degradation of SQSTM1/p62"
same,IC50,BRD4(2),> 50 µM
same,apoptotic cells by Annexin-V/PI staining,MDA-MB-231 cells [8],significant increase in early and late apoptotic cells
same,apoptosis by TUNEL assay,MDA-MB-231 cells [9],obvious FITC fluorescence were aggregated in the nucleus
same,autophagy induction (LC3 puncta),MDA-MB-231 cells [10],obvious aggregation of LC3 puncta
same,autophagy induction (LC3 puncta),MDA-MB-231 cells [10]; listed as AM978,induce autophagy
"COc1cc(Cl)c(C(=O)N[C@@H](CN[C@H]2CC[C@@H](N)CC2)Cc2ccc(C#N)cc2)cc1-c1ccc(CN[C@H](C)c2ccc(C)cc2)o1 [BAY-850, reference compound]",IC50,ATAD2 bromodomain [1]; read-out: IC50 against ATAD2 bromodomain,242 nM
same,activity in cellular assays,[11],lack activity
CO[C@H]1CNC[C@@H](OCC2CCC(F)(F)CC2)[C@@H]1Nc1ncc(-c2cncc(C)c2)c2cc(C)c(=O)[nH]c12 [GSK8814],antiproliferative activity,[12],weak antiproliferative
CC1(C2CC2)NC(=O)N(CC(=O)Nc2ccc(Br)c(S(=O)(=O)N3CCCCC3)c2)C1=O (stereo not shown) [compound 23],activity in cellular assays,[11],lack activity
Cc1ccc(-c2cnc(NC3CC4CCC(N4)C3CCC3CCC(F)(F)CC3)c3[nH]c(=O)c(C)cc23)cn1 (stereo not shown) [compound 26],activity in cellular assays,[11],lack activity
Cc1cncc(-c2cnc(N[C@@H]3CCNC[C@H]3OCC3CCS(=O)(=O)CC3)c3[nH]c(=O)c(C)cc23)c1 [compound 38],BET selectivity,BET,100 fold
same,ATAD2 potency,ATAD2 bromodomain [13],100 nM
